Where a SMILES comes first, the peptide text is derived from it. [ ]: non-standard residue; d: D form. Phe(4-F) = N[C@@H](Cc1ccc(F)cc1)C(=O)O; 1Nal = N[C@@H](Cc1cccc2ccccc12)C(=O)O; d(hPhe) = N[C@H](CCc1ccccc1)C(=O)O; Cha = N[C@@H](CC1CCCCC1)C(=O)O
Assays:
[1] = target: T1, human neurokinin-1 receptor (NK1R) (Homo sapiens, UniProt P25103); assay: Substance P receptor binding: 125I-substance P displacement from human NK1R expressed in COS cells; details: for IC50: 125I-SP, COS cells expressing human NK1R, read-out: IC50 (concentration required to inhibit the binding of substance P to the human neurokinin-1 receptor by 50%)
T1 construct: the cDNA for the human NK1R was cloned into the expression vector pCDM9; expressed in transfected cells; host or cells: COS cells (transient, electroporation, vector pCDM9)
Method: The affinity of a variety of compounds for the substance P receptor was determined employing the following procedure.
A. Receptor Expression in COS
To express the cloned human neurokinin-1 receptor (NK1R) transiently in COS, the cDNA for the human NK1R was cloned into the expression vector pCDM9 which was derived from pCDM8 (Invitrogen) by inserting the ampicillin resistance gene (nucleotide 1973 to 2964 from Bluescript SK+) into the Sac II site. Transfection of 20 μg of the plasmid DNA into 10 million COS cells was achieved by electroporation in 800 μl of the transfection buffer ([…], 1.2 mM MgCl2, 2.4 mM K2 HPO4, 0.6 mM KH2 PO4, 10 nM glucose, 10 mM HEPES pH 7.4) at 260V and 950 μF using the IBI Genezapper (IBI, New Haven, Conn.). The cells were incubated in 10% fetal calf serum, 2 mM glutamine, 100 U/ml penicillin-streptomycin, and 90% DMEM media (Gibco, Grand Island, N.Y.) in 5% CO2 at 37° C. for three days before the binding assay.
B. Assay Protocol using COS
The binding assay of human NK1R expressed in COS cells is based on the use of ^125 I-substance P (^125 I-SP, from DuPont, Boston, Mass.) as a radioactively labeled ligand which competes with unlabeled substance P or any other ligand for binding to the human NK1R. Monolayer cell cultures of COS were dissociated by the non-enzymatic solution (Specialty Media, Lavallette, N.J.) and resuspended in appropriate volume of the bind buffer (50 mM Tris pH 7.5, 5 mM MnCl2, 150 mM NaCl, 0.04 mg/ml bacitracin, 0.004 mg/ml leupeptin, 0.2 mg/ml BSA, 0.01 mM phosphoramidon) such that 200 μl of the cell suspension would give rise to about 10,000 cpm of specific ^125 I-SP binding (approximately 50,000 to 200,000 cells). In the binding assay, 200 μl of cells were added to a tube containing 20 μl of 1.5 to 2.5 nM of ^125 I-SP and 20 μl of unlabeled substance P or any other test compound. The tubes were incubated at 4° C. or at room temperature for 1 hour with gentle shaking. The bound radioactivity was separated from unbound radioactivity by GF/C filter (Brandel, Gaithersburg, Md.) which was pre-wetted with 0.1 polyethylenimine. The filter was washed with 3 ml of wash buffer (50 Tris pH 7.5, 5 mM MnCl21 150 mM NaCl) three times and its radioactivity was determined by gamma counter.
A variety of compounds were tested according to the COS cell procedure. The concentration of compound required to inhibit the binding of substance P to the human neurokinin-1 receptor by 50% was measured.

SRIF receptor = SRIF receptor affinity: displacement of 125I-CGP-23996 from AtT-20 cells; assay type: binding
Method: The affinity of a variety of compounds for the SRIF receptor was determined by studying the displacement of ^125 I-CGP-23996 from AtT-20 cells using the method generally in accordance with Raynor and Reisine, Journal of Pharmacology and Experimental Therapeutics, 1989, 251;2, 510.

β-adrenergic receptor = assay: Radioligand displacement from AtT-20 and brain cells, β-adrenergic receptor; assay type: binding
[2] = displacement of 125I-CGP-23996, AtT-20 cells

T1 sequence (P25103 whole entry): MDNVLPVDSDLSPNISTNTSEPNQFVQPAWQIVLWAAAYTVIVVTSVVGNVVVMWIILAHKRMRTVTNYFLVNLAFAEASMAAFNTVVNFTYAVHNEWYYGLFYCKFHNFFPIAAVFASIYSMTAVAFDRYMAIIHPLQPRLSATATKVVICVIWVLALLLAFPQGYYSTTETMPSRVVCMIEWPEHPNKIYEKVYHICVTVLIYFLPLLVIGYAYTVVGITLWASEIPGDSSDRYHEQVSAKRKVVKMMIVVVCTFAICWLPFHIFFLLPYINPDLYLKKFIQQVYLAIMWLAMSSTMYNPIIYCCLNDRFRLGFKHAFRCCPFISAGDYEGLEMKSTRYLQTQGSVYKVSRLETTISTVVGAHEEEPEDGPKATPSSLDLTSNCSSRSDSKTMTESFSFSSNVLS

Row | SMILES | IC50 (HIV-1 protease) [nM] | other results
1 | CC(C)C[C@@H]1NC(=O)[C@@H](Cc2c[nH]c3ccccc23)NC(=O)[C@H](Cc2ccccc2)NC(=O)[C@@H]2CCCN2C(=O)[C@H](Cc2ccccc2)NC(=O)[C@H]([C@@H](C)O)NC1=O [(17a), Cyclo (Phe-D-Trp-Leu-Thr-Phe-Pro)] (cyclo(FPF[dW]LT)) | 3420 | –
2 | C[C@@H](O)[C@@H]1NC(=O)[C@H](Cc2ccccc2)NC(=O)[C@@H](Cc2c[nH]c3ccccc23)NC(=O)[C@H](Cc2ccccc2)NC(=O)[C@@H]2CCCN2C(=O)[C@H](Cc2ccccc2)NC1=O [(17b), Cyclo (Phe-D-Trp-Phe-Thr-Phe-Pro)] (cyclo(FPF[dW]FT)) | 330 | –
3 | C[C@@H](O)[C@@H]1NC(=O)[C@H](Cc2ccc(O)cc2)NC(=O)[C@@H](Cc2c[nH]c3ccccc23)NC(=O)[C@H](Cc2ccccc2)NC(=O)[C@@H]2CCCN2C(=O)[C@H](Cc2ccccc2)NC1=O [(17c), Cyclo (Phe-D-Trp-Tyr-Thr-Phe-Pro)] (cyclo(FPF[dW]YT)) | 2150 | –
4 | C[C@@H]1NC(=O)[C@@H](Cc2c[nH]c3ccccc23)NC(=O)[C@H](Cc2ccccc2)NC(=O)[C@@H]2CCCN2C(=O)[C@H](Cc2ccccc2)NC(=O)[C@H]([C@@H](C)O)NC1=O [(17d), Cyclo (Phe-D-Trp-Ala-Thr-Phe-Pro)] (cyclo(ATFPF[dW])) | 9000 | –
5 | COc1ccc(C[C@@H]2NC(=O)[C@@H](Cc3c[nH]c4ccccc34)NC(=O)[C@H](Cc3ccccc3)NC(=O)[C@@H]3CCCN3C(=O)[C@H](Cc3ccccc3)NC(=O)[C@H]([C@@H](C)O)NC2=O)cc1 [(17e), Cyclo (Phe-D-Trp-p-MeO-Phe-Thr-Phe-Pro)] (cyclo(FPF[dW]Y(Me)T)) | 130 | –
6 | C[C@@H](O)[C@@H]1NC(=O)[C@H](Cc2ccc(F)cc2)NC(=O)[C@@H](Cc2c[nH]c3ccccc23)NC(=O)[C@H](Cc2ccccc2)NC(=O)[C@@H]2CCCN2C(=O)[C@H](Cc2ccccc2)NC1=O [(17f), Cyclo (Phe-D-Trp-p-F-Phe-Thr-Phe-Pro)] (cyclo(FPF[dW][Phe(4-F)]T)) | 37 | –
7 | C[C@@H](O)[C@@H]1NC(=O)[C@H](Cc2ccccc2)NC(=O)[C@@H](Cc2c[nH]c3ccccc23)NC(=O)[C@H](CO)NC(=O)[C@@H]2CCCN2C(=O)[C@H](Cc2ccccc2)NC1=O [(18a), Cyclo (Ser-D-Trp-Phe-Thr-Phe-Pro)] (cyclo(FPS[dW]FT)) | 2210 | –
8 | C[C@@H](O)[C@@H]1NC(=O)[C@H](Cc2ccccc2)NC(=O)[C@@H](Cc2c[nH]c3ccccc23)NC(=O)[C@H](CC(=O)O)NC(=O)[C@@H]2CCCN2C(=O)[C@H](Cc2ccccc2)NC1=O [(18b), Cyclo (Asp-D-Trp-Phe-Thr-Phe-Pro)] (cyclo(D[dW]FTFP)) | 4020 | –
9 | C[C@@H](O)[C@@H]1NC(=O)[C@H](Cc2ccccc2)NC(=O)[C@@H](Cc2c[nH]c3ccccc23)NC(=O)[C@H]2CCCN2C(=O)[C@@H]2CCCN2C(=O)[C@H](Cc2ccccc2)NC1=O [(18c), Cyclo (D-Pro-D-Trp-Phe-Thr-Phe-Pro)] (cyclo(FP[dP][dW]FT)) | 51 | –
10 | C[C@@H]1NC(=O)[C@@H]2CCCN2C(=O)[C@H](Cc2ccccc2)NC(=O)[C@H]([C@@H](C)O)NC(=O)[C@H](Cc2ccccc2)NC(=O)[C@@H](Cc2c[nH]c3ccccc23)NC1=O [(18d), Cyclo (Ala-D-Trp-Phe-Thr-Phe-Pro)] (cyclo(A[dW]FTFP)) | 2200 | –
11 | C[C@@H](O)[C@@H]1NC(=O)[C@H](Cc2ccccc2)NC(=O)[C@@H](Cc2c[nH]c3ccccc23)NC(=O)[C@H](Cc2c[nH]c3ccccc23)NC(=O)[C@@H]2CCCN2C(=O)[C@H](Cc2ccccc2)NC1=O [(18e), Cyclo (Trp-D-Trp-Phe-Thr-Phe-Pro)] (cyclo(FPW[dW]FT)) | 73 | –
12 | C[C@@H](O)[C@@H]1NC(=O)[C@H](Cc2ccccc2)NC(=O)[C@@H](Cc2c[nH]c3ccccc23)NC(=O)[C@@H](Cc2ccccc2)NC(=O)[C@@H]2CCCN2C(=O)[C@H](Cc2ccccc2)NC1=O [(18f), Cyclo (D-Phe-D-Trp-Phe-Thr-Phe-Pro)] (cyclo(FP[dF][dW]FT)) | 1120 | –
13 | C[C@@H](O)[C@@H]1NC(=O)[C@H](Cc2ccccc2)NC(=O)[C@@H](Cc2c[nH]c3ccccc23)NC(=O)[C@@H](CCc2ccccc2)NC(=O)[C@@H]2CCCN2C(=O)[C@H](Cc2ccccc2)NC1=O [(18g), Cyclo (D-Homo-Phe-D-Trp-Phe-Thr-Phe-Pro)] (cyclo(FP[d(hPhe)][dW]FT)) | 161 | –
14 | C[C@@H](O)[C@@H]1NC(=O)[C@H](Cc2ccccc2)NC(=O)[C@@H](Cc2c[nH]c3ccccc23)NC(=O)[C@H](CC2CCCCC2)NC(=O)[C@@H]2CCCN2C(=O)[C@H](Cc2ccccc2)NC1=O [(18h), Cyclo (Cha-D-Trp-Phe-Thr-Phe-Pro)] (cyclo([Cha][dW]FTFP)) | 700 | –
15 | C[C@@H](O)[C@@H]1NC(=O)[C@H](Cc2ccccc2)NC(=O)[C@@H](Cc2c[nH]c3ccccc23)NC(=O)[C@H](Cc2cccc3ccccc23)NC(=O)[C@@H]2CCCN2C(=O)[C@H](Cc2ccccc2)NC1=O [(18i), Cyclo (Nal-D-Trp-Phe-Thr-Phe-Pro)] (cyclo([1Nal][dW]FTFP)) | 22 | –
16 | CC(=O)NCCCCCOC[C@H]1O[C@@H](OCCc2cn(S(=O)(=O)c3ccccc3)c3ccccc23)[C@H](OCc2ccccc2)[C@@H](OCc2ccccc2)[C@@H]1OCc1ccccc1 [Compound 7, 2-(1-Phenylsulfonyl-indol-3yl)ethyl-6-O-(5-acetamidopentyl)-2,3,4-tri-O-benzyl-β-D-glucopyranoside] | – | IC50 [1]: 56 nM
17 | CO[C@@H]1O[C@H](COCCCCCN)[C@@H](OCc2ccccc2)[C@H](OCc2ccccc2)[C@H]1OCc1ccccc1 [Compound 8, Methyl 6-O-(5-aminopentyl)-2,3,4-tri-O-benzyl-β-D-glucopyranoside] | – | binding to substance P receptor [1]: is bound by; IC50 [1]: 840 nM; binding to SRIF receptor (SRIF receptor): is bound by; IC50 (SRIF receptor; [2]): 40000 nM; binding to β-adrenergic receptor (β-adrenergic receptor): does not bind; Binding Inhibition (β-adrenergic receptor; 125I-CYP (0.1 nM), AtT-20): 0%
18 | OC[C@@H]1C[C@H](OCc2ccccc2)[C@@H](OCc2ccccc2)[C@H](OCCc2c[nH]c3ccccc23)O1 [Compound 11, 2-Indol-3-yl-ethyl-2,3,-di-O-benzyl-4-deoxy-β-D-glucopyranoside] | – | IC50 [1]: 400 nM
19 | CO[C@@H]1O[C@H](COCCCCCNC(=O)C(F)(F)F)[C@@H](OCc2ccccc2)[C@H](OCc2ccccc2)[C@H]1OCc1ccccc1 [Compound 13, Methyl 2,3,4-tri-O-benzyl-6-O-(N-trifluoroacetyl-5-aminopentyl)-β-D-glucopyranoside] | – | IC50 [1]: 1000 nM; IC50 (affinity for the SRIF receptor) (SRIF receptor; [2]): does not bind
20 | C[C@@H](O)[C@@H]1NC(=O)[C@H](Cc2ccc(F)cc2)NC(=O)[C@@H](Cc2c[nH]c3ccccc23)NC(=O)[C@H](Cc2cccc3ccccc23)NC(=O)[C@@H]2CCCN2C(=O)[C@H](Cc2ccccc2)NC1=O [Compound (19), Cyclo (Nal-D-Trp-p-F-Phe-Thr-Phe-Pro)] (cyclo([1Nal][dW][Phe(4-F)]TFP)) | 2.8 | –
21 | C[C@@H](O)[C@@H]1NC(=O)[C@H](CCCCN)NC(=O)[C@@H](Cc2c[nH]c3ccccc23)NC(=O)[C@H](Cc2ccccc2)NC(=O)[C@@H]2CCCN2C(=O)[C@H](Cc2ccccc2)NC1=O [L-363,301, reference compound] (cyclo(PF[dW]KTF)) | – | IC50 (SRIF receptor; [2]): 18.7 nM
22 | CC(C)[C@@H]1NC(=O)[C@H](CCCCN)NC(=O)[C@@H](Cc2c[nH]c3ccccc23)NC(=O)[C@H](Cc2ccc(O)cc2)NC(=O)[C@H](C)N(C)C(=O)[C@H](Cc2ccccc2)NC1=O [MK 678, reference compound] | – | IC50 (SRIF receptor; [2]): 60 nM

— patent US5811512A, “Non-peptide peptidomimetics and related cyclic hexapeptides” (The Trustees of the University of Pennsylvania, priority 1996, dated 1998)
